Data from US8536178B2, “Pharmaceutical composition for preventing or treating diseases associated with beta-amyloid accumulation containing morpholin or piperazine based compounds having SO3H or COOH as active ingredient” (Korea Institute of Science and Technology, priority 2009, dated 2013).

Columns and labels:
[1] = target: T1, Aβ40 fibril (Homo sapiens, UniProt P05067); test: Accumulated beta-amyloid disaggregation activity by thioflavin T (ThT) fluorescence intensity, Aβ40; assay type: biochemical; details: Aβ40 50 μM, compound 20 mM
T1 construct: beta-amyloids 40 and 42 consisting of 40 and 42 amino acids
Protocol: (§1) In order to measure the disaggregation activity of the beta-amyloid aggregate of a compound according to the present invention, the following experiment was performed using thioflavin T (ThT) fluorescence intensity.
(§2) Thioflavin T (ThT) is well mixed with fibril which is a beta-amyloid aggregate in a solution and tends to increase the fluorescence intensity as the concentration of fibril increases.
(§3) For aggregation of beta-amyloid, a beta-amyloid stock solution was prepared. The beta-amyloid stock solutions were prepared in a DMSO solution such that Aβ40 or Aβ42 might have a concentration of 5 mM and 2.5 mM, respectively, and diluted in distilled water by 10 times to prepare Aβ40 and Aβ42 at a final concentration of 500 μM and 250 μM, respectively. It was cultured at 37° C. for 7 to 10 days to prepare a sufficient amount of beta-amyloid aggregate. Subsequently, compounds of chemical formula 1a to 1e according to the present invention or distilled water were again added into each accumulated beta-amyloid to obtain 10-times diluted solutions, and then they were cultured at 37° C. for 7 days. Distilled water was used as a control group. The final concentration of the compound was 20 mM, and the final concentrations of beta-amyloid Aβ40 or Aβ42 were 50 μM and 25 μM, respectively. After distilled water or the compound was added, 25 μl of each reaction solution on 0th, 3rd, and 7th day was aliquoted into each well, into which was added 75 μl of thioflavin T (ThT) to have thioflavin T (ThT) at a concentration of 5 μM. It was cultured for additional 15 minutes, and then the fluorescence intensity of a half well 96 fluorescence microplate was measured by Envision 2103 multilabel reader, Perkin-Elmer. During the measurement of fluorescence intensity, the wavelengths of excitation and emission were 450 nm and 485 nm, respectively and the counting time was 0.5 sec. […]

[2] = target: T2, Aβ42 fibril (Homo sapiens, UniProt P05067); test: Accumulated beta-amyloid disaggregation activity by thioflavin T (ThT) fluorescence intensity, Aβ42; assay type: biochemical; details: Aβ42 25 μM, compound 20 mM
T2 construct: beta-amyloids 40 and 42 consisting of 40 and 42 amino acids
Protocol: as §1, §2, §3

[3] = target: T3, Aβ40 (Homo sapiens, UniProt P05067); test: Beta-amyloid accumulation inhibitory activity by thioflavin T (ThT) fluorescence intensity; assay type: biochemical; details: Aβ40 50 μM, compound 20 mM (test compound: chemical formula 1a), 37° C., 0th to 7th day, FIG. 1
T3 construct: beta-amyloids 40 and 42 consisting of 40 and 42 amino acids
Protocol: In order to measure the beta-amyloid accumulation inhibitory activity of a compound according to the present invention, the following experiment was performed using thioflavin T (ThT) fluorescence intensity.
Thioflavin T (ThT) is well mixed with fibril which is a beta-amyloid aggregate in a solution and tends to increase the shifted fluorescence intensity as the concentration of fibril increases.
A solution was prepared in a DMSO solution such that Aβ40 might have a concentration of 5 mM, and diluted in a compound of chemical formula 1a by 100 times to prepare Aβ40 at a final concentration of 50 μM. The concentration of the compound was 20 mM. Tramiprosate was used as a control group. Tramiprosate is a compound known to treat Alzheimer's disease and related diseases by inhibiting the accumulation of beta-amyloid (F. Gervais, J. et al. (2007)). Subsequently, it was cultured at 37° C. for 7 days. […] It was cultured for additional 15 minutes, and then the fluorescence intensity of a half well 96 fluorescence microplate was measured by Envision 2103 multilabel reader, Perkin-Elmer. During the measurement of fluorescence intensity, the wavelengths of excitation and emission were 450 nm and 485 nm, respectively and the counting time was 0.5 sec.

[4] = target: T4, accumulated Aβ40 (Homo sapiens, UniProt P05067); test: Beta-amyloid fibril disaggregation activity by SDS-PAGE, Aβ40; assay type: biochemical; details: Aβ40 50 μM, compound 20 mM, 3rd and 7th day, photo-induced cross-linking, silver staining
T4 construct: beta-amyloids 40 and 42 consisting of 40 and 42 amino acids
Protocol: (§4) In order to measure the accumulated beta-amyloid disaggregation activity of a compound according to the present invention, the following experiment was performed using SDS-PAGE.
(§5) When peptides or proteins are subjected to electrophoresis on an SDS gel, the secondary structures of the proteins are broken. Thus, it is necessary to cross-link the proteins and immobilize their structures. It is achieved by a photo-induced cross-linking such that the structure of accumulated beta-amyloid may not be dismissed during electrophoresis on SDS gel. Specifically, a beta-amyloid stock solution was prepared in a DMSO solution such that Aβ40 or Aβ42 may have a concentration of 5 mM or 2.5 mM, and was […] by 10 times using distilled water to prepare Aβ40 and Aβ42 at a concentration of 500 μM and 250 μM, respectively. It was cultured at 37° C. for 7 to 10 days to prepare a sufficient amount of beta-amyloid aggregate. Subsequently, compounds of chemical formula 1a to 1e according to the present invention or distilled water were again added into each accumulated beta-amyloid to obtain 10-times diluted solutions, and then they were cultured at 37° C. for 7 days. Distilled water was used as a control group. The final concentration of the compound was 20 mM, and the final concentrations of beta-amyloid Aβ40 or Aβ42 were 50 μM and 25 μM, respectively. […]

[5] = target: T5, accumulated Aβ42 (Homo sapiens, UniProt P05067); test: Beta-amyloid fibril disaggregation activity by SDS-PAGE, Aβ42; assay type: biochemical; details: Aβ42 25 μM, compound 20 mM, 3rd and 7th day, photo-induced cross-linking, silver staining
T5 construct: beta-amyloids 40 and 42 consisting of 40 and 42 amino acids
Protocol: as §4, §5

[6] = target: T6, beta-amyloid 40 aggregate (Homo sapiens, UniProt P05067); test: Beta-amyloid fibril disaggregation activity by electronic microscope, Aβ40; assay type: biochemical; details: Aβ40 50 μM, compound 20 mM, 3rd and 7th days, FIG. 6
T6 construct: beta-amyloids 40 and 42 consisting of 40 and 42 amino acids
Protocol: (§6) In order to measure accumulated beta-amyloid disaggregation activity of a compound according to the present invention, the following experiment was performed using electronic microscope.
(§7) A beta-amyloid stock solution was prepared such that Aβ40 or Aβ42 might have a concentration of 5 mM and 2.5 mM, respectively, and diluted in distilled water by 10 times to prepare Aβ40 and Aβ42 at a final concentration of 500 μM and 250 μM, respectively. It was cultured at 37° C. for 7 to 10 days to prepare a sufficient amount of beta-amyloid aggregate. Subsequently, compounds of chemical formula 1a to 1e according to the present invention or distilled water were again added into each accumulated beta-amyloid to obtain 10-times diluted solutions, and then it was cultured at 37° C. for 7 days. Distilled water was used as a control group. The final concentration of the compound was 20 mM, and the final concentrations of beta-amyloid Aβ40 or Aβ42 were 50 μM and 25 μM, respectively. Subsequently, a compound of chemical formula 1a was added, and then the mixture was cultured at 37° C. for 7 days. From each of the reaction solutions on 0th, 3rd, and 7th days after addition of distilled water or the compound, the accumulations and disaggregation degrees of accumulated beta-amyloid were observed using analytical transmission electron microscope. […]

[7] = target: T7, beta-amyloid 42 aggregate (Homo sapiens, UniProt P05067); test: Beta-amyloid fibril disaggregation activity by electronic microscope, Aβ42; assay type: biochemical; details: Aβ42 25 μM, compound 20 mM, 3rd and 7th days, FIG. 7
T7 construct: beta-amyloids 40 and 42 consisting of 40 and 42 amino acids
Protocol: as §6, §7

[8] = system: HT-22 cells treated with Aβ40; test: Cell viability (MTT) on beta-amyloid toxicity, Aβ40; assay type: cell-based, rat; details: HT-22, Aβ40 2 μM pre-treated with compound, 24 hours, untreated cells = 100%, FIG. 8 (a)
Protocol: (§8) In order to determine the cell survival rate of a compound according to the present invention on beta-amyloid toxicity, the following example was performed.
(§9) In order to obtain beta-amyloid aggregates, a beta-amyloid stock solution was prepared. The beta-amyloid stock solutions were prepared in a DMSO solution such that Aβ40 or Aβ42 might have a concentration of 5 mM and 2.5 mM, respectively, and diluted in distilled water by 10 times to prepare Aβ40 and Aβ42 at a final concentration of 500 μM and 250 μM, respectively. Distilled water added to each solution to culture a 10 times diluted beta-amyloid at 37° C. for 7 to 10 days. Subsequently, compounds of chemical formula 1a to 1e according to the present invention or distilled water were again added into each beta-amyloid to obtain 10-times diluted solutions, and then it was cultured at 37° C. for 7 days. Distilled water was used as a control group instead of the compound. […] The cytotoxicity of the reaction solutions on 0th, 3rd, and 7th days after addition of distilled water or the compound was measured using the following cell line.
(§10) HT-22, a neuronal cell line of a rat, was cultured in DMEM (Dulbecco's Modified Eagle's Medium) supplemented with 10% FBS (Fetal Bovine Serum) and 1% penicillin/streptomycin in an incubator of 37° C. and 5% CO2. […] 18 hours later, the optical absorption was determined at 570 nm by a microplate reader. […]

[9] = system: HT-22 cells treated with Aβ42; test: Cell viability (MTT) on beta-amyloid toxicity, Aβ42; assay type: cell-based, rat; details: HT-22, Aβ42 1 μM pre-treated with compound, 24 hours, untreated cells = 100%, FIG. 8 (b)
Protocol: as §8, §9, §10

[10] = system: HT-22 cells; test: Cytotoxicity of the compound alone (MTT); assay type: cell-based, rat; details: HT-22, without any treatment of beta-amyloid, untreated cells = 100%

T2 sequence (P05067 672-713 limits assumed): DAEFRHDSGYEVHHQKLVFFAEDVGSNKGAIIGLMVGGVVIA
T1 sequence (P05067 672-711 limits assumed): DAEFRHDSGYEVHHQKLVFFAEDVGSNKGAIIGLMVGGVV
T5 sequence (P05067 672-713 limits assumed): as the sequence (P05067 672-713 limits assumed) above
T7 sequence (P05067 672-713 limits assumed): as above
T4 sequence (P05067 672-711 limits assumed): as the sequence (P05067 672-711 limits assumed) above
T3 sequence (P05067 672-711 limits assumed): as above
T6 sequence (P05067 672-711 limits assumed): as above

In the case of `O=S(=O)(O)CC(O)CN1CCN(CCO)CC1` (centres unmarked) [chemical formula 2, HEPPSO], the “disaggregation activity to the beta-amyloid aggregate (ThT)” value [1] is reported as “does not exhibit any disaggregation activity”, the “ThT fluorescence intensity compared to initially prepared aggregates (prefibrils)” value ([1]; 37° C., up to 7 days) is reported as “increased” and the “disaggregation activity to the beta-amyloid aggregate (ThT)” value [2] is reported as “does not exhibit any disaggregation activity”. For the same compound, the “ThT fluorescence intensity compared to initially prepared aggregates (prefibrils)” value ([2]; 37° C., up to 7 days) was “increased”.
With `NCCCS(=O)(=O)O` [tramiprosate, Tramiprosate] the “increase of ThT fluorescence intensity” value [3] was “about 3.5 times”.
`O=S(=O)(O)CCCN1CCN(CCO)CC1` [chemical formula 1a] was tested, and the “course of ThT fluorescence intensity over time” value ([1]; 0th, 3rd, 7th day, FIG. 2 (a)) was “increased over time”, the “course of ThT fluorescence intensity over time” value ([2]; 0th, 3rd, 7th day, FIG. 2 (b)) was “increased over time” and the “disaggregation of accumulated beta-amyloid into monomers (SDS-PAGE band near 3.5 kD)” value [4] was “disaggregated into monomers”. The “disaggregation of accumulated beta-amyloid into monomers (SDS-PAGE band near 3.5 kD)” value [5] was “disaggregated into monomers”, the “beta-amyloid fibrils in transmission electron microscope images” value [6] was “no beta-amyloid fibrils appeared on 3rd and 7th days” and the “beta-amyloid fibrils in transmission electron microscope images” value [7] was “no beta-amyloid fibrils appeared on 3rd and 7th days”. For the same compound, the cell viability [8] was at least 95%, the cell viability [9] was at least 95% and the “cell viability, compound only” value [10] was at least 95%.
